# According to US6794380B2, “Amide derivatives” (AstraZeneca AB, priority 1999, dated 2004):
# Columns and labels:
# [1] = tested on: TNFα production in human whole blood; assay: Human Whole Blood test: inhibition of LPS-stimulated TNFα production; format: cell-based
# Procedure: The ability of the compounds of this invention to inhibit TNFα production was also assessed in a human whole blood assay. Human whole blood secretes TNFα when stimulated with LPS. This property of blood forms the basis of an assay which is used as a secondary test for compounds which profile as active in the PBMC test.
# Heparinised (10 units/ml) human blood was obtained from volunteers. 160 μl whole blood were added to 96 well round-bottom plates (Corning 25850). Compounds were solubilised and serially diluted in RPMI 1640 medium (Gibco) supplemented with 50 units/ml penicillin, 50 μg/ml streptomycin and 2 mM glutamine, as detailed above. 20 μl of each test concentration was added to appropriate wells (triplicate cultures). 20 μl of RPMI 1640 medium supplemented with antibiotics and glutamine was added to control wells. Plates were incubated for 30 minutes at 37° C. (humidified incubator), prior to addition of 20 μl LPS (final concentration 10 μg/ml). RPMI 1640 medium was added to control wells. Six “LPS alone” and four “medium alone” controls were included on each plate. A known TNFα synthesis/secretion inhibitor was included in each test. Plates were incubated for 6 hours at 37° C. (humidified incubator). […] TNFα levels were measured by ELISA (see WO92/10190 and Current Protocols in Molecular Biology, vol 2 by Frederick M. Ausbel et al., John Wiley and Sons Inc.). […]
# [2] = biological target: T1, p38α (Homo sapiens, UniProt Q16539); assay: In vitro enzyme assay, p38α; format: biochemical; settings: read-out: IC50 against p38α
# T1 construct: c-myc (N); 6His (N); made in house; host or cells: E. coli (PET vectors)
# T1 sequence (Q16539 whole entry): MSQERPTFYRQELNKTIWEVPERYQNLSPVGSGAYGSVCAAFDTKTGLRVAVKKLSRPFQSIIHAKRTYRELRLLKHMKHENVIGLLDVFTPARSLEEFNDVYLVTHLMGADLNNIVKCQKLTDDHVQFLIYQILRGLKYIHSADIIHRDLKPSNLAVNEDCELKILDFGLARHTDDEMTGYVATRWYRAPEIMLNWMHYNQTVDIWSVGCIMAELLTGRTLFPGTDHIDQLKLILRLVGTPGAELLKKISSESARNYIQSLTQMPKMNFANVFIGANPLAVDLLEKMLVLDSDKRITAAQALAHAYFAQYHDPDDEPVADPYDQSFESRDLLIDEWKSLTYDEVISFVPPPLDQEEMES
# Procedure: The ability of compounds of the invention to inhibit the enzyme p38 kinase was assessed. Activity of test compounds against each of the p38α and p38β isoforms of the enzyme was determined. […]
# Test compounds were solubilised in DMSO and 10 μl of a 1:10 diluted sample in ‘Kinase Buffer’ was added to a well in a Microtiter plate. […] The precipitated protein was phosphorylated by p38 kinase and test compounds were assessed for their ability to inhibit this phosphorylation. The plates were filtered using a Canberra Packard Unifilter and washed with 2% TCA, dried overnight and counted on a Top Count scintillation counter.
# Test compounds were tested initially at a single dose and active compounds were retested to allow IC50 values to be determined.
smiles,measurement,setting,value
CN(C)CCCN(C)c1ccc(NC(=O)c2cc(NC(=O)c3ccnc(N4CCOCC4)c3)ccc2Cl)cn1 [N-{6-[N-(3-dimethylaminopropyl)-N-methylamino]pyrid-3-yl}-2-chloro-5-(2-morpholinopyrid-4-ylcarbonylamino)benzamide],IC50,[1],~5000 nM
same,IC50,[2],~50 nM
